Patent publication US7192746B2, “α-Isomaltosyltransferase, process for producing the same and use thereof” (Kabushiki Kaisha Hayashibara Seibutsu Kagaku Kenkyujo, priority 2000, dated 2007)

What was measured:
[1] = Saturation concentration of cyclotetrasaccharide in water; format: physicochemical; conditions: for Saturation concentration of cyclotetrasaccharide: water
Source text: The resulting each saturated solution of cyclotetrasaccharide was membrane filtered to remove undissolved cyclotetrasaccharide, and each filtrate was then examined for moisture content by the drying loss method and determined for a saturation concentration of cyclotetrasaccharide at respective temperatures.

amylopsin = biological target: T1, amylopsin (Homo sapiens, UniProt P04746)
T1 sequence (P04746 16-511): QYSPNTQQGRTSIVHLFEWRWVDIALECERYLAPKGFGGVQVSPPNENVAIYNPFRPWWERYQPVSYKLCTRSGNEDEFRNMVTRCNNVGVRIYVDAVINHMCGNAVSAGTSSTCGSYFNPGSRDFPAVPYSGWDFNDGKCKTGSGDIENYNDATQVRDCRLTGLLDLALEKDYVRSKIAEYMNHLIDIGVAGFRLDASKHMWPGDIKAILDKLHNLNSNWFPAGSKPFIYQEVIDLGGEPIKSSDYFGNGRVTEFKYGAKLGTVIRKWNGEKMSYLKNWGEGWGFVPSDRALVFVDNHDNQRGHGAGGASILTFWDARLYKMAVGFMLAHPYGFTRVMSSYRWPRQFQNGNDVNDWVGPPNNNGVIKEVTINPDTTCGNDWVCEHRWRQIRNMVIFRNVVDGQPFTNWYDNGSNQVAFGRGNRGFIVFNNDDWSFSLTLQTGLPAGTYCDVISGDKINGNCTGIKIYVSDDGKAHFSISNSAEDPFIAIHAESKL

[2] = system: α-isomaltosyl-transferring enzyme from Arthrobacter ramosus S1; assay: Specificity to transferring acceptor; format: biochemical; conditions: panose as saccharide donor, 10 units/g substrate, 3.2% (w/v), 30° C., pH 6.0, 24 hours
Outline: (§1)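 Panose donor + test saccharide (equimolar-equal conc.), 3.2% (w/v) total, 10 units/g substrate enzyme; 30° C., pH 6.0, 24 h. GLC (FID) for mono/disaccharide acceptors, HPLC (RI) for tri- and larger. Scored +/−.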

[3] = system: α-isomaltosyl-transferring enzyme from Bacillus globisporus N75; assay: Specificity to transferring acceptor; format: biochemical; conditions: panose as saccharide donor, 10 units/g substrate, 3.2% (w/v), 30° C., pH 6.0, 24 hours
Outline: as §1

[4] = system: α-isomaltosyl-transferring enzyme from Bacillus globisporus C11; assay: Specificity to transferring acceptor; format: biochemical; conditions: panose as saccharide donor, 10 units/g substrate, 3.2% (w/v), 30° C., pH 6.0, 24 hours
Outline: as §1

[5] = system: α-isomaltosyl-transferring enzyme from Bacillus globisporus C9; assay: Specificity to transferring acceptor; format: biochemical; conditions: panose as saccharide donor, 10 units/g substrate, 3.2% (w/v), 30° C., pH 6.0, 24 hours
Outline: as §1

[6] = system: α-isomaltosyl-transferring enzyme from Arthrobacter globiformis A19; assay: Specificity to transferring acceptor; format: biochemical; conditions: partially purified enzyme, panose as saccharide donor, 10 units/g substrate, 3.2% (w/v), 30° C., pH 6.0, 24 hours
Outline: as §1

SMILES	Weight of cyclotetrasaccharide dissolved in 100 g water ([1]; 10° C.) [g]	Weight of cyclotetrasaccharide dissolved in 100 g water ([1]; 30° C.) [g]	Weight of cyclotetrasaccharide dissolved in 100 g water ([1]; 50° C.) [g]	Weight of cyclotetrasaccharide dissolved in 100 g water ([1]; 70° C.) [g]	Weight of cyclotetrasaccharide dissolved in 100 g water ([1]; 90° C.) [g]	Saturation concentration of cyclotetrasaccharide ([1]; 10° C.) [%]	Saturation concentration of cyclotetrasaccharide ([1]; 30° C.) [%]	Saturation concentration of cyclotetrasaccharide ([1]; 50° C.) [%]	Saturation concentration of cyclotetrasaccharide ([1]; 70° C.) [%]	Saturation concentration of cyclotetrasaccharide ([1]; 90° C.) [%]	Decomposition percentage by digestive enzyme (amylopsin) [%]	Product of transferring reaction, Enzyme of Strain S1 [2]	Product of transferring reaction, Enzyme of Strain N75 [3]	Product of transferring reaction, Enzyme of Strain C11 [4]	Product of transferring reaction, Enzyme of Strain C9 [5]	Product of transferring reaction, Enzyme of Stain A19 [6]
OCC1OC2OCC3O[C@H](O[C@H]4C(O)C(CO)OC(OCC5O[C@H](O[C@@H](C1O)C2O)C(O)C(O)[C@@H]5O)C4O)C(O)C(O)[C@@H]3O (stereo partly drawn) [Cyclotetrasaccharide, cyclo{→6)-α-D-glucopyranosyl-(1→3)-α-D-glucopyranosyl-(1→6)-α-D-glucopyranosyl-(1→3)-α-D-glucopyranosyl-(1→}]	43.5	51.9	74.2	112.7	239.0	30.3	34.2	42.6	53.0	70.5	0.0					
OC[C@@H](O)[C@@H](O[C@H]1O[C@H](CO)[C@@H](O)[C@H](O)[C@H]1O)[C@H](O)[C@@H](O)CO [Maltitol, maltitol]												+ (a saccharide-transferred product was formed in an amount of over one percent but below 10% to the total sugars)	+ (a saccharide-transferred product was formed in an amount of over one percent but below 10% to the total sugars)	+ (a saccharide-transferred product was formed in an amount of over one percent but below 10% to the total sugars)	+ (a saccharide-transferred product was formed in an amount of over one percent but below 10% to the total sugars)	+ (a saccharide-transferred product was formed in an amount of over one percent but below 10% to the total sugars)
